According to paper PMC9862597, “Anti-Colorectal Cancer Effects of a Novel Camptothecin Derivative PCC0208037 In Vitro and In Vivo” (Pharmaceuticals, 2022):

Columns and labels:
LS180 and HCT116 cells [1] = test: Cell growth curve assay; type: cell-based; details: 0.001, 0.003 µmol/L, counts over 6 days
Experimental: Cell proliferation was examined by a cell growth curve assay and a clone formation assay. Colorectal cancer cells (LS180 and HCT116 cells) were plated onto six-well plates at a density of 8000 cells per well. […] The number of cells was measured 24 h after the drug treatments. Growth curves were generated from cell counts over 6 consecutive days. For the clone formation assay, colorectal cancer cells (LS180 and HCT116 cells) were plated onto six-well plates at a density of 800 cells per well. […] Cells were then incubated with designated concentrations of PCC0208037. Fourteen days later, cells were stained with a crystal violet solution, and clones were counted.
Figure 2 Effect of PCC0208037 on cell growth. (A) Cell growth curves of LS180 cells under different treatments. (B) Cell growth curves of HCT116 cells under different treatments. The data were expressed as the mean ± SD (n = 3). * p < 0.05 as compared to the control.

HCT116 cells = test: MTT cell viability assay, HCT116; type: cell-based; details: Homo sapiens, HCT-116, 72 h
Experimental: (§1) Cell viability was assessed using the MTT assay, as previously reported. Briefly, colorectal cancer cells (LS180, HCT116, CT-26, and HT-29 cells) were plated onto 96-well plates at 3000 cells per well and incubated overnight. […] Control cells were treated with DMSO at a final concentration of 0.1%. Cells were cultured with the compounds or medium for 72 h. The cells were then treated with MTT. The medium was then decanted, and DMSO was added and shaken until the color reaction was complete. The […] were read using a Molecular Devices SpectraMax M5 (San Jose, CA, USA) at OD570 nm. The half maximal inhibitory concentration (IC50) was calculated.

LS180 and HCT116 cells [2] = test: Western blot of DNA damage and apoptosis related proteins; type: cell-based; details: 0.01 and 0.03 μM, compared to control
Experimental: Effects of PCC0208037 on the protein expression levels were examined by Western blotting, as described previously. Briefly, 2 × 10^6 LS180 and HCT116 cells were seeded in 10-cm dishes to adhere overnight. […] At the desired time points, cells were washed twice with a cold PBS. Then, cells were lysed in the RIPA buffer for 30 min on ice. The RIPA buffer contains protease inhibitors and phosphatase inhibitors. After sonication, the samples were centrifuged at 12,000 rpm, and then the supernatants were harvested and assayed for the protein concentration. Equal amounts of protein (30 μg) were separated with a polyacrylamide gel and transferred to a PVDF membrane. The membranes were blocked for 2 h (in 5% skim milk) and then incubated with primary antibodies overnight at 4 °C: ATM p-ATM, ATR, p-ATR, Chk1, p-Chk1, Chk2, p-Chk2, P53, p-P53, Bcl2, gamma H2AX, Bax, Puma, β-actin, and GAPDH. Then, the membranes were incubated with secondary antibodies for 2 h at room temperature. All these antibodies were diluted to a 1:1000 concentration in use. The immunoblots were visualized by a BeyoECL Plus enhanced chemiluminescence system.
Figure 6 Effects of PCC0208037 on molecules related to DNA damage in CRC cells. […]

LS180 cells = test: MTT cell viability assay, LS180; type: cell-based; details: Homo sapiens, LS180, 72 h
Experimental: as §1

LS180 xenograft tumor = test: Subcutaneous LS180 xenograft model; type: in vivo, nude mice; details: for tumor inhibition rate (tumor weight): 15 d
Experimental: To establish xenograft tumor models, RPMI 1640 and Matrigel were mixed at a 1:1 ratio. Colorectal cancer cells (LS180: 5 × 10^6 cells) were added to 0.1 mL of the mixture, and male nude mice were subcutaneously injected with colorectal cancer cells on the right side. […] Tumor volume and animal weight were measured every 3 days and continued until the end of the experiments. All mice were euthanized by cervical dislocation at the end of the experiment, and the xenograft tumors were removed and weighed.
Figure 8 Anti-tumor effect of PCC0208037 in the LS180 xenograft tumor model. (A) Representative tumors removed after the last treatment in each treatment group. (B) Body weight gain curves of mice bearing an LS180 xenograft tumor. (C) Tumor weights in the different groups of mice after 15 d of treatment.

[3] = 0.25 h and 1 h after single i.v. injection
Experimental: Then, 0.25 h and 1 h after the injection, the colorectal and tumor tissue were removed, rinsed with saline, and blotted dry.

[4] = Pharmacokinetic study, single intravenous dose
Experimental: Blood samples were collected at 0.083 h, 0.25 h, 0.5 h, 1 h, 2 h, 4 h, 8 h, and 12 h after administration. Plasma was prepared after centrifugation at 6000× g for 5 min and then stored at −20 °C for further analysis.

[5] = BALB/c, mouse, in vivo, iv, 10.65 mg/kg
[6] = PCC0208037 in plasma, 10.65 mg/kg PCC0208037 i.v., n = 3

## CCc1c2c(nc3ccc(O)cc13)-c1cc3c(c(=O)n1C2)COC(=O)[C@@]3(CC)OC(=O)Nc1nc(=O)n([C@@H]2O[C@H](C)[C@@H](O)[C@H]2O)cc1F [PCC0208037]
LS180 and HCT116 cells [1]
  cell growth ability (cell growth curve): decreased the cell growth ability in a dose-dependent manner
HCT116 cells
  IC50: 2.9 ± 0.61 µM
LS180 and HCT116 cells [2]; 8 h
  protein levels of molecules associated with DNA damage: significantly up-regulated the protein levels of γ-H2AX, p-ATM, p-Chk1, p-Chk2, p-P53, and P53
LS180 and HCT116 cells [2]; 24 h
  protein levels of molecules associated with apoptosis: significantly up-regulated the protein levels of BAX and PUMA and down-regulated the protein level of Bcl-2
LS180 cells
  IC50: 0.22 ± 0.06 µM
LS180 xenograft tumor; 5 mg/kg i.v. once every 3 days
  tumor inhibition rate (tumor weight): 29.9%
LS180 xenograft tumor; 10 mg/kg i.v. once every 3 days
  tumor inhibition rate (tumor weight): 37.2%
LS180 xenograft tumor; 20 mg/kg i.v. once every 3 days
  tumor inhibition rate (tumor weight): 50.8%
LS180 xenograft tumor; PCC0208037 5, 10, 20 mg/kg, CPT-11 10 mg/kg, i.v. once every 3 days
  effect on body weight of tumor-bearing mice: without impacting the normal feeding and body weight gain
[3]
  concentration in the colorectal tissue compared with CPT-11: significantly lower than CPT-11
[4]; [5]
  Cmax: 137 µg/mL
  Tmax: 11.4 ± 4.2 min
  half-life: 70.2 ± 0.9 min
[4]; [6]
  AUCinf: 68,388.4 ± 17,991.1 H * ng/mL
  AUClast: 68,292.5 ± 18,078.2 H * ng/mL
